Tests used:
[1] = tested on: ECS cells (derived from SCC-13) tumors; assay: Tumor xenograft growth assay, SCC-13-derived ECS cells in NSG mice; type: in vivo
Protocol: In (A), SCC13-Control-shRNA and SCC13-TG2-shRNA2 cells were double electroporated with empty vector (EV) or YAP(S127A)-encoding vector and at 48 h post-electroporation lysates were collected for immunoblot. In (B), (C), and (D), the indicated cell lines were electroporated with EV or YAP(S127A)-encoding vector and then plated for spheroid formation, invasion and migration assay. In (E) and (F), ECS cells (100,000 cells derived from SCC-13) were injected into each front flank in NSG mice. At 1 d post injection, the mice were treated with 0 or 20 mg NC9 per kg body weight delivered in 200 μl by gavage three times per week. Images represent appearance and size of typical control and NC9 treated tumors harvested on week four. In (G), tumors were harvested at 4 wk and extracts were prepared for assay of indicated proteins. Blots from two representative tumors are shown. In (H), a proposed TG2 signaling scheme is shown. TG2 interacts with α6/β4 integrin to enhance integrin (FAK/Src) signaling which increases PI3K/PDK1 activity and PDK suppresses activity in the Hippo signaling cascade (LATS1). This leads to reduced LATS1 phosphorylation of YAP1 which then interacts with and stabilizes ΔNp63α. […]
Tumor xenograft growth assay. […] Tumor growth was monitored by measuring tumor diameter and calculating tumor volume=4/3π×(diameter/2)^3 (Streit, M. et al., Am. J. Pathol. 155:441-52, 1999). […]

[2] = molecular target: T1, TG2 (Homo sapiens, UniProt P21980); assay: Inhibition irreversibility (filtration, dilution, activity assay); type: biochemical; settings: after filtration over 10-kDa membrane and dilution
T1 sequence (P21980 1-687): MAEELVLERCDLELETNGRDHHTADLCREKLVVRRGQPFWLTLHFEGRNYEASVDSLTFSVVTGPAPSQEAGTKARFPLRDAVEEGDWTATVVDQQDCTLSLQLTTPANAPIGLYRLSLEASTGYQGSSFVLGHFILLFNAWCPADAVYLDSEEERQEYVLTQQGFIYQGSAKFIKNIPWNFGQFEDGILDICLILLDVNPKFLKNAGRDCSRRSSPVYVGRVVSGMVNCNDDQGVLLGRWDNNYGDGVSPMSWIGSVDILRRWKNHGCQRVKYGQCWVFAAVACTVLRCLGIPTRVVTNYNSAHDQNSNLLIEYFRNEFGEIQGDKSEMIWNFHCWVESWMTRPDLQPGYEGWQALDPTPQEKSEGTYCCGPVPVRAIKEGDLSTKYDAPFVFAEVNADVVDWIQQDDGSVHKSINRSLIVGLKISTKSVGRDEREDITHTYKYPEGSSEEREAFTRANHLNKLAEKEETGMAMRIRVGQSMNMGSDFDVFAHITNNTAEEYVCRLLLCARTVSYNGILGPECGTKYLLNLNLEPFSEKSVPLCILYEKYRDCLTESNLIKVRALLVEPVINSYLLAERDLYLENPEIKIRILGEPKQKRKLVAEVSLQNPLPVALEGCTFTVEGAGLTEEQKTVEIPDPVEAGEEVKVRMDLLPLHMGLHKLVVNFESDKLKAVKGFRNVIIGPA
From the text: Inhibition irreversibility.

| SMILES | tumor formation ([1]; 20 mg/kg body weight, three times per week, 4 wk) | integrin and Hippo signaling in tumor extracts ([1]; 20 mg/kg, tumors harvested at 4 wk) | recovered activity of inhibited hTG2 [2] |
| --- | --- | --- | --- |
| C=CC(=O)NCCCC[C@H](NC(=O)OCc1ccccc1)C(=O)NCCOCCOCCNS(=O)(=O)c1cccc2c(N(C)C)cccc12 [NC9] | markedly suppressed tumor formation | reduced integrin-04 level, and FAK and Src activity, and increased LATS1-P and YAP-P | – |
| C=CC(=O)NCCCC[C@H](NC(=O)OCc1ccccc1)C(=O)N1CCN(S(=O)(=O)c2cccc3c(N(C)C)cccc23)CC1 [VA4, (S)-benzyl(6-acrylamido-1-(4-((5-(dimethylamino)naphthalen-1-yl)sulfonyl)piperazin-1-yl)-1-oxohexan-2-yl)carbamate] | – | – | no recovered activity |
